Results from US20170022171A1, “2,5-DISUBSTITUTED CYCLOPENTANECARBOXYLIC ACIDS AND THEIR USE” (Bayer Pharma Aktiengesellschaft, priority 2014, published 2017).

Legend:
Assay type in all cases: biochemical
[1] = target: T1, human macrophage elastase (HME/hMMP-12) (Homo sapiens, UniProt P39900); experiment: In vitro HME inhibition test (standard or high-sensitivity); conditions: in some cases mean values
T1 construct: 0.5 nM HME; purchased R&D Systems 917-MP
In short: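 Fluorogenic assay: 0.5 nM autoactivated HME with 5 µM Mca-Pro-Leu-Gly-Leu-Glu-Glu-Ala-Dap(Dnp)-NH2 in HEPES pH 7.4 buffer (NaCl, CaCl2, ZnCl2, EDTA, Brij), 2 h at 37 °C; ex 323/em 393 nm. IC50 from fluorescence versus concentration. High-sensitivity format: ~0.05 nM enzyme, ~16 h incubation.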

MMP-7 = target: T2, MMP-7 (Homo sapiens, UniProt P09237); experiment: In vitro MMP-7 inhibition test
T2 construct: purchased R&D Systems 907-MP
T2 sequence (P09237 95-267): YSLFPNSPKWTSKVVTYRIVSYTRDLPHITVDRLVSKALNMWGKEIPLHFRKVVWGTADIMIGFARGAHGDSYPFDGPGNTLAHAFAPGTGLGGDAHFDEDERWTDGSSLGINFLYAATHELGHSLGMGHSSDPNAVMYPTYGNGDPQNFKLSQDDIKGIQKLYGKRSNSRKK
Excerpt: (§1) The MMP-mediated amidolytic cleavage of a suitable peptide substrate leads to an increase in fluorescent light here too. The signal intensity of the fluorescent light is directly proportional to the enzyme activity. The active concentration of a test compound at which half the enzyme is inhibited (50% signal intensity of the fluorescent light) is reported as the IC50 value.
Recombinant MMP-7 (from R&D Systems, 907-MP) is chemically activated in accordance with the manufacturer's instructions using APMA. 1 μl of the test compound to be analysed (as a solution in DMSO, suitable concentrations, for example, 1 nM to 30 μM) is pipetted into 24 μl of activated enzyme (final concentration, for example, 0.5 nM) in reaction buffer (50 mM Tris/HCl pH 7.5, 10 mM CaCl2, 150 mM NaCl, 0.05% Brij®-35) in a white 384-hole microtiter plate (MTP). The enzymatic reaction is started by adding the intramolecularly quenched Mca-Pro-Leu-Gly-Leu-Dpa(Dnp)-Ala-Arg-NH2 substrate (final concentration, for example, 10 μM; R&D Systems, ES-001), so as to result in a total test volume of […] The course of the MMP-7 reaction is measured by measuring the fluorescence intensity (excitation 320 nm, emission 410 nm) over a suitable period of time (for example over 120 min at a temperature of 32° C.).

MMP-8 = target: T3, MMP-8 (Homo sapiens, UniProt P22894); experiment: In vitro MMP-8 inhibition test
T3 construct: purchased R&D Systems 908-MP
Excerpt: as §1
Recombinant MMP-8 (from R&D Systems, 908-MP) is chemically activated in accordance with the manufacturer's instructions using APMA. 1 μl of the test compound to be analysed (as a solution in DMSO, suitable concentrations, for example, 1 nM to 30 μM) is pipetted into 24 μl of activated enzyme (final concentration, for example, 0.5 nM) in reaction buffer (50 mM Tris/HCl pH 7.5, 10 mM CaCl2, 150 mM NaCl, 0.05% Brij®-35) in a white 384-hole microtiter plate (MTP). The enzymatic reaction is started by adding the intramolecularly quenched Mca-Pro-Leu-Gly-Leu-Dpa(Dnp)-Ala-Arg-NH2 substrate (final concentration, for example, 10 μM; R&D Systems, ES-001), so as to result in a total test volume of 50 μl. The course of the MMP-8 reaction is measured by measuring the fluorescence intensity (excitation 320 nm, emission 410 nm) over a suitable period of time (for example over 120 min at a temperature of 32° C.).

MMP-14 = target: T4, MMP-14 (Homo sapiens, UniProt P50281); experiment: In vitro MMP-14 inhibition test
T4 construct: purchased R&D Systems 918-MP
Excerpt: as §1
Recombinant MMP-14 (from R&D Systems, 918-MP) is enzymatically activated in accordance with the manufacturer's instructions using recombinant furin (from R&D Systems, 1503-SE). 1 μl of the test compound to be analysed (as a solution in DMSO, suitable concentrations e.g. 1 nM to 30 μM) is pipetted into 24 μl of activated enzyme (final concentration e.g. 0.5 nM) in reaction buffer (50 mM Tris/HCl pH 7.5, 10 mM CaCl2, 150 mM NaCl, 0.05% Brij®-35) in a white 384-hole microtiter plate (MTP). The enzymatic reaction is started by adding the intramolecularly quenched Mca-Lys-Pro-Leu-Gly-Leu-Dpa(Dnp)-Ala-Arg-NH2 substrate (final concentration, for example, 5 μM; R&D Systems, ES-010), so as to result in a total test volume of 50 The course of the MMP-14 reaction is measured by measuring the fluorescence intensity (excitation 320 nm, emission 410 nm) over a suitable period of time (for example over 120 min at a temperature of 32° C.).

T3 sequence (P22894 101-467): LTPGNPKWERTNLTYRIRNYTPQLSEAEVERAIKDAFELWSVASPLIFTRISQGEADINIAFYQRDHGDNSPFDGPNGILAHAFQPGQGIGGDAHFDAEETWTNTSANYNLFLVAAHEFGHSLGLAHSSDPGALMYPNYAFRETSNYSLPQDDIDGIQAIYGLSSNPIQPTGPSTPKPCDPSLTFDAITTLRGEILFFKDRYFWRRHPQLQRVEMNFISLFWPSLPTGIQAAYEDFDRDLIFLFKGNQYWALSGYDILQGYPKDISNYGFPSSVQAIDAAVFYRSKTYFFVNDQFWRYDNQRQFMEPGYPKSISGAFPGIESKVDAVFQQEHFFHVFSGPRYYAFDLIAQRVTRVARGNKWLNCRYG
T1 sequence (P39900 106-470): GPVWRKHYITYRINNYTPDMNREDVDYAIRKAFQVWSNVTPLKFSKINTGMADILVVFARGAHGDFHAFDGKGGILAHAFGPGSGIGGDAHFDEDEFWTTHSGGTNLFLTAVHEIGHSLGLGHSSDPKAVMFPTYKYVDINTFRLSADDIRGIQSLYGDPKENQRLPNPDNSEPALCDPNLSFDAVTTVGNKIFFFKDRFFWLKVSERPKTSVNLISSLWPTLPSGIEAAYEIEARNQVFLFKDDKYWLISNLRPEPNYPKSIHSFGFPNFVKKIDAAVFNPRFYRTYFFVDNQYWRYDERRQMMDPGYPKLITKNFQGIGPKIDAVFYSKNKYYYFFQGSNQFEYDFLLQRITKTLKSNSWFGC

Row | Compound | IC50 [1] [nM] | IC50 (MMP-7) [nM] | IC50 (MMP-8) [nM] | IC50 (MMP-14) [nM]
1 | COc1cccc(COc2ccc(C(=O)[C@H]3CC[C@@H](Cn4nnc5ccc(C)cc5c4=O)[C@@H]3C(=O)O)cc2)c1 (racemic) [Example 106, (+/−)-(1RS,2RS,5SR)-2-{4-[(3-Methoxybenzyl)oxy]benzoyl}-5-[(6-methyl-4-oxo-1,2,3-benzotriazin-3(4H)-yl)methyl]cyclopentanecarboxylic acid] | 0.078 | 190 | 11 | 180
2 | CCCCCSc1ccc(C(=O)[C@H]2CC[C@@H](Cn3nnc4ccc(C(F)(F)F)cc4c3=O)[C@@H]2C(=O)O)cc1 (racemic) [Example 88, (+/−)-(1RS,2SR,5RS)-2-{[4-Oxo-6-(trifluoromethyl)-1,2,3-benzotriazin-3(4H)-yl]methyl}-5-[4-(pentylsulphanyl)benzoyl]cyclopentanecarboxylic acid] | 0.023 | 120 | 6.2 | 440
3 | Cc1ccc2nnn(C[C@H]3CC[C@@H](C(=O)c4ccc(OCc5cccc(C(F)(F)F)c5)cc4)[C@@H]3C(=O)O)c(=O)c2c1 (single isomer, unassigned) [Example 101, (+)-(1RS,2SR,5RS)-2-[(6-Methyl-4-oxo-1,2,3-benzotriazin-3(4H)-yl)methyl]-5-(4-{[3-(trifluoromethyl)benzyl]oxy}benzoyl)cyclopentanecarboxylic acid] | 0.086 | 720 | 29 | 380
4 | COc1cccc(COc2ccc(C(=O)[C@@H]3CC[C@H](Cn4nnc5ccc(C)cc5c4=O)[C@H]3C(=O)O)cc2)c1 (single isomer, unassigned) [Example 107, (+)-(1RS,2RS,5SR)-2-{4-[(3-Methoxybenzyl)oxy]benzoyl}-5-[(6-methyl-4-oxo-1,2,3-benzotriazin-3(4H)-yl)methyl]cyclopentanecarboxylic acid] | 0.035 | 200 | 19 | 290
5 | Cc1cccc(COc2ccc(C(=O)[C@@H]3CC[C@H](Cn4nnc5ccc(C(F)(F)F)cc5c4=O)[C@H]3C(=O)O)cc2)c1 (single isomer, unassigned) [Example 16, (+)-(1RS,2RS,5SR)-2-{4-[(3-Methylbenzyl)oxy]benzoyl}-5-{[4-oxo-6-(trifluoromethyl)-1,2,3-benzotriazin-3(4H)-yl]methyl}cyclopentanecarboxylic acid] | 0.064 | 190 | 65 | 320
6 | (+)-(1RS,2RS,5SR)-2-{4-[Cyclohexyl)methyl)sulphanyl]benzoyl}-5-{[4-oxo-6-(trifluoromethyl)-1,2,3-benzotriazin-3(4H)-yl]methyl}cyclopentanecarboxylic acid [Example 86] | 0.018 | 1000 | 150 | 3900

Continued, values first:

Row | IC50 [1] [nM] | IC50 (MMP-7) [nM] | IC50 (MMP-8) [nM] | IC50 (MMP-14) [nM] | Compound
7 | 0.048 | 110 | 2.4 | 33 | Cc1ccc2nnn(C[C@H]3CC[C@@H](C(=O)c4ccc(OCc5ccccc5)cc4)[C@@H]3C(=O)O)c(=O)c2c1 (single isomer, unassigned) [Example 92, (+)-(1RS,2RS,5SR)-2-[4-(Benzyloxy)benzoyl]-5-[(6-methyl-4-oxo-1,2,3-benzotriazin-3(4H)-yl)methyl]cyclopentanecarboxylic acid]
8 | 0.11 | 910 | 61 | 1000 | O=C(O)[C@H]1[C@H](Cn2nnc3ccc(C(F)(F)F)cc3c2=O)CC[C@@H]1C(=O)c1ccc(OCc2cccc(C(F)(F)F)c2)cc1 (racemic) [Example 18, (+/−)-(1RS,2SR,5RS)-2-{[4-Oxo-6-(trifluoromethyl)-1,2,3-benzotriazin-3(4H)-yl]methyl}-5-(4-{[3-(trifluoromethyl)benzyl]oxy}benzoyl)cyclopentanecarboxylic acid]
9 | 0.1 | 330 | 41 | 320 | Cc1ccc2nnn(C[C@@H]3CC[C@H](C(=O)c4ccc(OCc5cccc(Cl)c5)cc4)[C@H]3C(=O)O)c(=O)c2c1 (racemic) [Example 103, (+/−)-(1RS,2RS,5SR)-2-{4-[(3-Chlorobenzyl)oxy]benzoyl}-5-[(6-methyl-4-oxo-1,2,3-benzotriazin-3(4H)-yl)methyl]cyclopentanecarboxylic acid]
10 | 0.051 | 340 | 74 | 1900 | O=C(O)[C@@H]1[C@@H](Cn2nnc3ccc(C(F)(F)F)cc3c2=O)CC[C@H]1C(=O)c1ccc(SCc2ccccc2)cc1 (single isomer, unassigned) [Example 75, (+)-(1RS,2RS,5SR)-2-[4-(Benzylsulphanyl)benzoyl]-5-{[4-oxo-6-(trifluoromethyl)-1,2,3-benzotriazin-3(4H)-yl]methyl}cyclopentanecarboxylic acid]
11 | 0.019 | 160 | 0.67 | 78 | O=C(O)[C@H]1[C@H](Cn2nnc3ccc(C(F)(F)F)cc3c2=O)CC[C@@H]1C(=O)c1ccc(OCc2ccc(F)cc2)cc1 (racemic) [Example 12, (+/−)-(1RS,2RS,5SR)-2-{4-[(4-Fluorobenzyl)oxy]benzoyl}-5-{[4-oxo-6-(trifluoromethyl)-1,2,3-benzotriazin-3(4H)-yl]methyl}cyclopentanecarboxylic acid]
12 | 0.013 | 120 | 0.79 | 230 | O=C(O)[C@@H]1[C@@H](Cn2nnc3ccc(C(F)(F)F)cc3c2=O)CC[C@H]1C(=O)c1ccc(OCc2ccc(Cl)cc2)cc1 (single isomer, unassigned) [Example 25, (+)-(1RS,2RS,5SR)-2-{4-[(4-Chlorobenzyl)oxy]benzoyl}-5-{[4-oxo-6-(trifluoromethyl)-1,2,3-benzotriazin-3(4H)-yl]methyl}cyclopentanecarboxylic acid]
13 | 0.074 | 190 | 3 | 68 | Cc1ccc2nnn(C[C@@H]3CC[C@H](C(=O)c4ccc(OCc5ccccc5)cc4)[C@H]3C(=O)O)c(=O)c2c1 (racemic) [Example 91, (+/−)-(1RS,2RS,5SR)-2-[4-(Benzyloxy)benzoyl]-5-[(6-methyl-4-oxo-1,2,3-benzotriazin-3(4H)-yl)methyl]cyclopentanecarboxylic acid]
14 | 0.044 | 730 | 290 | 6400 | O=C(O)[C@H]1[C@H](Cn2nnc3ccc(C(F)(F)F)cc3c2=O)CC[C@@H]1C(=O)c1ccc(OCCCc2ccccc2)cc1 (racemic) [Example 39, (+/−)-(1RS,2SR,5RS)-2-{[4-Oxo-6-(trifluoromethyl)-1,2,3-benzotriazin-3(4H)-yl]methyl}-5-[4-(3-phenylpropoxy)benzoyl]cyclopentanecarboxylic acid]
